Laboratory results from PMC11203266, “Continuous evolution of compact protein degradation tags regulated by selective molecular glues” (Science (New York, N.Y.), 2024).

Key:
[1] = target: T1, TUB (Homo sapiens, UniProt P50607); experiment: Western blot of TUB in HEK293T cells; assay type: cell-based; conditions: 100-10,000 nM
T1 construct: endogenous in cells; host or cells: HEK293T
Description: HEK293T or K562 cells were plated at a density of 1.6 x 10^5 cells/well in a 24-well plate coated with poly-D-lysine (Corning) in 1 mL media (DMEM + 10% FBS for HEK293T cells and RPMI + 10% FBS for K562 cells). After 16–18 hrs, cells were treated with either DMSO or the indicated concentration of small molecules to a 0.5% final concentration of DMSO. Plates were incubated at 37 °C, 5% CO2 for 24 hours for all cell lines except endogenously tagged PLK1–SD40 HEK293T cells, which were incubated for 2 hours. Cells were washed with PBS and then lysed for 30 minutes at 4 °C in radioimmunoprecipitation assay (RIPA; 25 mM Tris-HCl, 150 mM NaCl, 1% NP-40, 1% sodium deoxycholate, 0.1% SDS, pH ~ 7.6) buffer containing 1 mM phenylmethylsulfonyl fluoride (PMSF; Sigma Aldrich) and 1 x EDTA-free protease inhibitor cocktail (Roche). Lysates were centrifuged for 20 min @18,000 x g to isolate the soluble fractions. Protein concentration in clarified lysates was quantified using Pierce BCA Protein Assay Kit (Thermo Scientific) according to the manufacturer’s protocol. Clarified lysates were mixed with NuPAGE LDS Sample Buffer (Thermo NP0007) containing 10 mM DTT and boiled for 10 minutes. Gel electrophoresis was performed on boiled samples using polyacrylamide gels (Invitrogen NP0329BOX) with equal amounts of total protein in each lane. […]
values were calculated using a Welch's t-test. […]

[2] = test system: SD40–BRD4; experiment: Immunoblot, endogenous SD40-tagged BRD4 in K562 cells; assay type: cell-based, human; conditions: 24 hrs
Description: Next, we evaluated the installation of SD40 at endogenous genomic target genes in mammalian cells using twin prime editing (twin PE) ([54], [75]). We optimized prime editing parameters, including spacer position and prime editor construct ([30]), to insert SD40 at the C-terminus of PLK1 with 26% editing efficiency and 8.8% indel byproducts in HEK293T cells (Fig. 3E, fig. S13), enabling rapid isolation of a homozygous PLK1-SD40 cell line. PLK1 is an essential cell-state regulator ([76]), and complete knockdown for 24 hours is cytotoxic. […] We also used twin prime editing to install SD40 at the N-terminus of BRD4 yielding 7.7% knock-in of SD40 in K562 cells (Fig. 3E, S13) with 4.3% indel byproducts. […] For comparison, we also attempted scarless insertion of SD40 and FKBP12^F36V from the dTag system (324 base pairs) ([17]) at the N-terminus of BRD4 using Cas9 nuclease-directed HDR using two different sgRNAs and a double-strand donor DNA template. […]
HEK293T or K562 cells were plated at a density of 1.6 x 10^5 cells/well in a 24-well plate coated with poly-D-lysine (Corning) in 1 mL media (DMEM + 10% FBS for HEK293T cells and RPMI + 10% FBS for K562 cells). […] Protein concentration in clarified lysates was quantified using Pierce BCA Protein Assay Kit (Thermo Scientific) according to the manufacturer’s protocol. […]

[3] = target: T2, DDB1•CRBN (Homo sapiens, UniProt Q96SW2); experiment: Competitive fluorescence anisotropy (polarization) vs thalidomide-Cy5; assay type: binding; conditions: competition with thalidomide–Cy5; KD estimated from Ki
T2 construct: made in house
Description: Competitive fluorescence polarization experiments were performed according to previously reported methods ([65]). All experiments were performed in 25 mM HEPES, […], 1 mM TCEP, pH 7.4. A pre-complexed sample was prepared by incubating DDB1-CRBN (400 nM) with thalidomide–Cy5 conjugate (fig. S2A) (80 nM) at RT for 30 minutes with gentle shaking (220 rpm). […] Polarization values were measured on an Infinite M1000 Pro microplate reader (Tecan) following 1 hour of incubation at RT with gentle shaking. A total of three independent measurements were acquired and averaged per biological sample to generate the values shown in figure S2C. All mP values were normalized between 0 and 100 using the formula NormalizedmP=[(x−minimum)/[…]]∗100 , where ‘‘x’’ is the mP value of the sample and ‘‘minimum’’ and ‘‘maximum’’ are the minimum and maximum mP values, respectively, across all samples. KD values were estimated from computed Ki-values as previously described ([65]).

O=C1CCC(N2C(=O)c3ccc(N4CCOCC4)cc3C2=O)C(=O)N1 (stereo not drawn) [PT-179]
TUB degradation (in words) [1]: does not degrade TUB | SD40–BRD4 degradation (in words) [2]: robust degradation | Kd [3]: 587 nM
